One experiment concerns H. pylori N6. The experiment in a line: vitality / metabolic (respiratory inhibition) counter-screen. Type of experiment: cell-based, Helicobacter pylori. To be noted: > 100% indicates no inhibition. Background: Counterscreens check selectivity or assay interference.
Experiment [1] concerns H. pylori flaA-luciferase reporter strain N6. As to the kind of experiment: microbe, parasite or virus in culture. Type of experiment: cell-based, Helicobacter pylori. The settings on record: for inhibitory activity in luciferase reporter assay: result in words; for Weak activity (% of non-inhibited control): flaA-luciferase reporter strain N6, IC50 not determined. From the text:
The H. pylori flaA promoter was fused with a luciferase operon (luxAB) from Vibrio harveyi in a H. pylori suicide plasmid (Niehus, Ye, Suerbaum, & Josenhans, 2002). The flaA reporter fusion was recombined into the H. pylori chromosome and the resulting strain tested to be strongly luminescence positive. The reporter strain (N6 flaA-lux4B) activated luminescence to about 40,000 to 60,000 counts per second using luciferase substrate at an OD600 of 0.8 (mid-log phase) in liquid culture. The negative control value of a non-reporter strain or reporter strain without luminescence substrate was close to zero. […] The Z-Factor (Zhang et al., 1999) determined for the assay with various bacterial inhibitors measured in quadruplicates or triplicates was routinely between 0.6 and 0.7, with a confidence interval of 95%.
H. pylori luminescence reporter strains were passaged on blood agar plates less than 22 hours prior to the start of the experiment. The passage number for these assays was not higher than five to preserve the strain's properties and genetic stability. Luciferase reaction buffer was prepared as follows: 50 mM disodium phosphate (Na2HPO4) and 2% BSA were dissolved in HPLC water, filter sterilized, aliquoted and frozen at - 20°C.
Bacteria were harvested in brain-heart infusion medium (BHI, 3% yeast extract with 5% horse serum added) and adjusted to an OD600 of 0.8 at room temperature. 50 µl of the bacterial suspension were added per well of a 96 well plate (non-binding, Greiner Bio-One 655901). 2 µl of each of the test compounds (provided as a 10 mM DMSO solution) were added to the sample wells. The same amount of pure, diluted DMSO was added to the control wells for a concentration of a maximum of 4% DMSO per well, since higher concentrations will interfere with metabolic functions of H. pylori and cause false negative results. The microwell plate was incubated inside a sterile sealed PM Gas Bag (BIOLOG #3032) together with a CampyGen Compact pack (Oxoid) to generate microaerobic conditions at 37°C and with shaking at 175 rpm for 4 h.
Shortly before taking the measurement, the luciferase substrate was prepared by diluting the luminescence substrate decanal (10% stock, Sigma Aldrich) at a 1 :2,000 dilution in luciferase reaction buffer. 60 µl of the substrate were added per well of a white 96 microwell plate (Thermo Scientific #236105) without the lid.
For the final luciferase measurement, 10 µl of bacterial solution were transferred with the epMotion 96 (Eppendorf) simultaneously to the wells containing the luciferase substrate and incubated on a microwell plate shaker for 10 s to lyse the bacteria. The measurements were recorded with a Perkin Elmer Victor 3/WNallac 1420 plate reader (luminometry, measurement time: 0.5 sec) and integrated to counts per sec. For the background measurement, 10 µl sterile medium containing 4% DMSO was added to the wells. For each measurement, at least four luciferase reporter positive control wells (without inhibitory compound) and four negative control wells (background without bacteria) were run on the same day and under the same assay conditions in parallel.
(In a reporter assay the amount or activity of a reporter protein is the signal.)

The next experiment has as its system H. pylori. The experiment in a line: therapeutic treatment in chronic H. pylori mouse infection model (cfu counts, cagL PCR). Type of experiment: in vivo, C57B/L6 mice. The procedure: 6-8 weeks old specific pathogen-free C57B/L6 mice were obtained from Charles River Laboratories. They were acclimatized to the new surroundings for one week before starting the assays. For the whole duration of the experiment, mice had access to sterile chow and sterile water ad libitum. In week one of the experiment, H. pylori was administered at 3×10^8 bacteria per mouse per inoculum (100 µl) on two days with one day of break in between. The proof-of-principle treatment was started two weeks after the end of the inoculation week, assuming a stable infection at this time point. The mice were treated in separate groups (8-14 animals per group), as outlined in the results, with compound(s), antibiotic (metronidazole at 14.3 mg/kg/day), a combination of both antibiotic and compound (for concentrations, see Results), or mock-treated once daily over seven consecutive days by intra-gastric gavage. After the treatment week, the mice were kept for another two weeks under normal housing and feeding conditions with sterilized chow and sterile water ad libitum. At the end of the assay period (week seven), the mice were necropsied by cervical dislocation under CO2 anesthesia. The animal experiments were authorized under German federal law by the LAVES (Lower Saxony Government Authority).
Then, BL2 was further tested for therapeutic efficacy in a mouse model of chronic H. pylori infection (Fig. 5). Six groups of mice (10 mice per group in each of the four infected and/or treated groups, and six mice in both of the control groups) were established in this mouse treatment trial. For the treatment groups, mice were infected in week one (using ca. 3×10^8 bacteria per animal; Methods), and the chronic infection was manifested for two more weeks. The once-daily treatment (intragastric gavage) started in week four on seven consecutive days. For the treatment groups, three H. pylori-infected groups were evaluated in parallel. One dose of treatment was given daily.
Group one was treated with metronidazole (14.3 mg/kg/day) only, an established anti-H. pylori antibiotic. The antibiotic concentration corresponds to concentrations routinely used in human treatment. Group two was treated with metronidazole (dosed at 14.3 mg/kg/day) and BL2 (10 mg/kg/day) in combination, and group three received BL2 (10 mg/kg/day) only. In addition, one infected and mock-treated group was kept as positive control, and two mock-infected groups were set aside, one for administering BL2 only (10 mg/kg/day; microbiota compound control) and one which was mock-infected and mock-treated (microbiota null control).
The read-out of successful treatment was the reduction of colony-forming units (cfus) of bacteria in infected and treated mice, over infected, non-treated, mice, at the end of the experiment. […] All mice in the infected positive control group were colonized (both cfu counts and PCR-positive), although the cfu counts in three positive animals were rather low.

The mark [2] stands for this setting: Helicobacter pylori, H. pylori flaA-luciferase reporter strain N6, Table 6.
[3] abbreviates: H. pylori flaA-luciferase reporter strain N6, Table 6.

In brackets after ≈: the same amount, converted by molar mass. Several values for one entry are separate records, joined by “and”; a condition that tells them apart may be missing. Equal entries are not always repeated. Entries after “also recorded” stand apart in the source; their conditions may differ. Where two headings read alike, the source gives them in different places.

These results are taken from patent EP3892734B1, “SCREENING METHODS AND THERAPEUTIC APPLICATIONS BASED ON BACTERIAL MOTILITY INHIBITION” (Ludwig-Maximilians-Universität München, priority 2020, dated 2021).

In general, IC50 refers to the point on the concentration scale where inhibition reaches its midpoint.

Regarding `Cn1c(CSC(=N)N)c(Br)c(=O)n1-c1ccccc1` [DJ-1, (4-bromo-2-methyl-5-oxo-1-phenyl-2,5-dihydro-1H-pyrazol-3-yl)methyl carbamimidothioate], in the experiment with H. pylori N6, the “Metabolic assay (% of control)” value is on record as 107,7 % of control. In experiment [1] (H. pylori screen), the “Luciferase assay (% of control)” value was 1,4 % of control. For the same molecule, the IC50 was < 4.5 µg/mL in experiment [1] (setting [2]); 3.05 µg/mL and 10.3 µM in experiment [1] (Helicobacter pylori, read-out: IC50 (luciferase assay), luciferase flagellar reporter assay, Table 3).

The molecule `Cn1c(CS)c(Br)c(=O)n1-c1ccccc1` [DJ-2, 4-bromo-5-(mercaptomethyl)-1-methyl-2-phenyl-1,2-dihydro-3H-pyrazol-3-one] came in with a 50% inhibitory concentration (IC50) in experiment [1] (setting [3]) of 0.44 µg/mL (≈ 1.47 µM).

Turning to `Cn1c(CSCCO)c(Br)c(=O)n1-c1ccccc1` [DJ-3, 4-bromo-5-(((2-hydroxyethyl)thio)methyl)-1-methyl-2-phenyl-1,2-dihydro-3H-pyrazol-3-one], in experiment [1] (setting [3]), the IC50 entry is recorded as “No IC50”. Moreover, in experiment [1], the “inhibitory activity in luciferase reporter assay” value (“inhibitory activity” for short) is given as “No inhibitory activity was detectable”.

For `Cn1c(CN)c(Br)c(=O)n1-c1ccccc1` [DJ-4, 5-(aminomethyl)-4-bromo-1-methyl-2-phenyl-1,2-dihydro-3H-pyrazol-3-one], the IC50 entry in experiment [1] (setting [3]) is “No IC50”. For the same molecule, in experiment [1], the “inhibitory activity” value is on record as “No inhibitory activity was detectable”. In the case of `Cc1ccc(-n2c(=O)c(Br)c(CSC(=N)N)n2C)cc1` [DJ-5, (4-bromo-2-methyl-5-oxo-1-(p-tolyl)-2,5-dihydro-1H-pyrazol-3-yl)methyl carbamimidothioate], the IC50 in experiment [1] (setting [2]) was < 4.5 µg/mL. Same read-out and setting: for `Cc1cc(C)cc(-n2c(=O)c(Br)c(CSC(=N)N)n2C)c1` [DJ-6, (4-bromo-1-(3',5'-dimethylphenyl)-2-methyl-5-oxo-2,5-dihydro-1H-pyrazol-3-yl)methyl carbamimidothioate] the value was < 4.5 µg/mL; for `CC(C)c1ccc(-n2c(=O)c(Br)c(CSC(=N)N)n2C)cc1` [DJ-7, (4-bromo-1-(4'-isopropylphenyl)-2-methyl-5-oxo-2,5-dihydro-1H-pyrazol-3-vl)methyl carbamimidothioate], < 4.5 µg/mL. For the molecule `Cn1c(CSC(=N)N)c(Br)c(=O)n1-c1ccc(-c2ccccc2)cc1` [DJ-8, (1-([1',1"-biphenyl]-4'-yl)-4-bromo-2-methyl-5-oxo-2,5-dihydro-1H-pyrazol-3-yl)methyl carbamimidothioate], the 50% inhibitory concentration (IC50) in experiment [1] (setting [2]) is < 4.5 µg/mL. Turning to `Cn1c(CSC(=N)N)c(Br)c(=O)n1-c1ccc(Cl)cc1` [DJ-9, (4-bromo-1-(4'-chlorophenyl)-2-methyl-5-oxo-2,5-dihydro-1H-pyrazol-3-vl)methyl carbamimidothioate], in experiment [1] (setting [2]), the IC50 was < 4.5 µg/mL. Molecule `Cn1c(CSC(=N)N)c(Br)c(=O)n1-c1ccc(C(F)(F)F)cc1` [DJ-10, (4-bromo-2-methyl-5-oxo-1-(4'-(trifluoromethyl)phenyl)-2,5-dihvdro-1H-pyrazol-3-yl)methyl carbamimidothioate] registered a half-maximal inhibitory concentration (IC50) in experiment [1] (setting [2]) of 10.8 µg/mL (≈ 26.5 µM). In experiment [1] (setting [2]), `CCn1c(CSC(=N)N)c(Br)c(=O)n1-c1ccccc1` [DJ-11] showed an IC50 of 10.6 µg/mL (≈ 29.7 µM). Same read-out and setting: for `CCn1c(CS)c(Br)c(=O)n1-c1ccccc1` [DJ-12] the value was < 4.5 µg/mL.

Take `Cn1c(CSC(=N)N)c(Br)c(=O)n1-c1ccccn1` [DJ-13]: in experiment [1], the “Weak activity (% of non-inhibited control)” value is listed as “Weak activity (+/- 50 % of non-inhibited control) (IC50 not determined)” and the “inhibitory activity” value is “detectable yet weaker inhibitory activity”.

Regarding `Cc1ccc(-n2c(=O)c(Br)c(CSCc3c(Br)c(=O)n(-c4ccc(C)cc4)n3C)n2C)cc1` [DJ-14, 5,5'-(thiobis(methylene))bis(4-bromo-1-methyl-2-(p-tolyl)-1,2-dihydro-3H-pyrazol-3-one)], in experiment [1], the “Weak activity (% of non-inhibited control)” value is listed as “Weak activity (+/- 90 % of control) (IC50 not determined)” and the “inhibitory activity” value is given as “detectable yet weaker inhibitory activity”. On to `CC1(C)S[C@@H]2[C@H](NC(=O)[C@H](N)c3ccccc3)C(=O)N2[C@H]1C(=O)O` [ampicillin, reference compound], for which, in experiment [1], the “inhibitory activity” value was “did not alter the readings in the luciferase reporter assay”. `Cc1ncc([N+](=O)[O-])n1CCO` [metronidazole, reference compound]: the “reduction of colony-forming units (cfus) / bacterial loads in stomach” value with H. pylori (BL2 10 mg/kg/day, metronidazole 14.3 mg/kg/day, once daily, 7 days, intragastric gavage, versus infected control) was “significantly reduced bacterial counts; also recorded: left no bacterial counts”. Further, the “gene-specific (cagL) PCR signal in stomach homogenates” value in the experiment on H. pylori (two weeks post-treatment) is reported as “strong residual bacterial load; also recorded: all mice still had detectable specific bacterial (PCR) signal; also recorded: still readily detectable by PCR”. Regarding `C=C(C)[C@H]1Cc2c(ccc3c2O[C@@H]2COc4cc(OC)c(OC)cc4[C@@H]2C3=O)O1` [rotenone, reference compound], in experiment [1], the “inhibitory activity” value was “inhibited the luminescence reporter activity”. Same read-out and setting: for “carbonyl cyanide m-chlorophenyl hydrazine [CCCP, reference compound]” the value was “inhibited the luminescence reporter activity”.
